Tested on: MDA MB 231 cells
Assay: Antiproliferation assay in MDA MB 231 cells (Cell Titer Glo)
Assay type: cell-based
Conditions: Homo sapiens, MDA-MB-231, 216 h, MDAMB231 cell line, 9 day treatment, racemic compounds (Table 2)
Procedure, shortened: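 Treated for 9 days in total with rising doses, MDA MB 231 cells (250/well, 37° C, 5% CO2) got fresh compound on day 5. Viability by Cell Titer Glo luminescence (ATP), with cell-free wells subtracted as blank.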

Row | Compound | inhibition at 10 µM [%]
1 | CCC(=O)N1N=C(c2c(C)c3cnccc3[nH]c2=O)CC1c1ccc(C)cc1 (stereo not drawn) [Example 85, 4-methyl-3-(1-propionyl-5-(p-tolyl)-4,5-dihydro-1H-pyrazol-3-yl)-1,6-naphthyridin-2(1H)-one] | ≥ 50
2 | CCC(=O)N1N=C(c2c(C)c3ccc(N4CCOCC4)nc3[nH]c2=O)CC1c1ccc(C)cc1 (stereo not drawn) [Example 86, 4-methyl-7-morpholino-3-(1-propionyl-5-(p-tolyl)-4,5-dihydro-1H-pyrazol-3-yl)-1,8-naphthyridin-2(1H)-one] | < 50
3 | CCC(=O)N1N=C(c2c(C)c3ccc(OCCOC)nc3[nH]c2=O)CC1c1ccc(C)cc1 (stereo not drawn) [Example 87, 7-(2-methoxyethoxy)-4-methyl-3-(1-propionyl-5-(p-tolyl)-4,5-dihydro-1H-pyrazol-3-yl)-1,8-naphthyridin-2(1H)-one] | ≥ 50

— US20250145601A1, “NOVEL BICYCLIC COMPOUNDS AS RAD51 INHIBITORS” (SATYA THERAPEUTICS, INC., priority 2022, published 2025)
